The values below come from patent US5070210A, “Novel ketenimines as intermediates for insecticides” (ICI Americas Inc., priority 1990, dated 1991).

Format in all cases: in vivo
Assay [1] has as its system Tobacco Budworm [Heliothis virescens (Fabricius)] eggs. As to the kind of experiment: Tobacco budworm egg test. As to conditions: 2-day old eggs, percent in solution. In outline:
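Mortality of dipped eggs served as read-out, recorded after untreated controls hatched and began feeding. Treatments used acetone solutions from 0.1% downward, with eggs incubated at 78° F; LC50 is expressed as percent of compound in the solution.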

Assay [2] relates to Aster Leafhopper [Macrosteles fascifrens (Stal)]. As to the kind of experiment: Aster leafhopper insecticidal test. Conditions: adults/nymphs, percent in solution; 48 hours. In outline: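 Three ~10 cm oat seedlings per cup were dipped 2-3 seconds in 50-50 acetone-water compound solutions, dried, and caged with ten adult/nymph leafhoppers. Mortality was counted after 48 hours at concentrations from 0.05% downward. LC50, as percent compound in solution, came from dosage-mortality curves.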

The test system of assay [3] is Maize weevil [Sitophilus Zeamais (Motschulsky)]. Briefly: Maize weevil insecticidal test. Conditions: adult weevils, percent in solution; 48 hours. In outline: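 LC50, in percent of compound in solution, was derived from dosage-mortality curves after 48 h at about 25 °C. Ten adult weevils per container fed on four corn seeds briefly immersed in acetone:water (50:50) solutions of up to 0.01% and dried.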

For assay [4], the system named is Housefly [Musca domestica]. As to the kind of experiment: Housefly insecticidal test. Conditions: μg per 25 female flies; mortality after 48 hours. In outline: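 Dose range started at 100 μg per 25 female flies and went downward. Insects (1-2 days old) contacted a dried acetone/peanut-oil deposit in dishes; LC50 values come from dosage-mortality curves at 48 h.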

Assay [5] relates to Cabbage Looper [Trichoplusia ni (Hubner)]. As to the kind of experiment: Cabbage looper insecticidal test. Conditions: second-instar larvae, percent in solution; 3-5 days. In outline:
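Steps: dilute compound in 50-50 acetone-water from 0.1% downward; immerse cotyledon pieces 2-3 s and dry; place in humid petri dishes with five second-instar larvae; record mortality at 3-5 days. Dosage-mortality curves yield LC50 as percent in solution.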

Bounds are passed on as bounds.

On to `Cc1ccc(N=C(OCc2ccc(F)c(Oc3ccc(F)cc3)c2)C(C)C)cc1F` [Compound 355], for which, in assay [1], the “LC50, TBW, E (TBW-E)” value is given as greater than 0.1%. Besides, the “LC50, LH” value in assay [2] is less than 0.05%. For the same compound, the “LC50, MW” value in assay [3] is given as greater than 0.01%. Further, the “LC50, HF” value in assay [4] is less than 100 µg. Besides, the “LC50, CL” value in assay [5] is greater than 0.1%.

For `Cc1ccc(N=C(OCc2ccc(F)c(Oc3ccccc3)c2)C(C)C)cc1Cl` [Compound 356], the “LC50, TBW, E (TBW-E)” value in assay [1] was found to be 0.025%. For the same compound, in assay [2], the “LC50, LH” value is recorded as less than 0.05%. For the same compound, in assay [3], the “LC50, MW” value was greater than 0.01%. In assay [4], the “LC50, HF” value is less than 100 µg. Moreover, in assay [5], the “LC50, CL” value was greater than 0.1%.

For the compound `Cc1ccc(N=C(OCc2ccc(F)c(Oc3ccc(F)cc3)c2)C(C)C)cc1Cl` [Compound 357], the “LC50, TBW, E (TBW-E)” value in assay [1] was greater than 0.1%. In addition, the “LC50, LH” value in assay [2] is reported as less than 0.05%. In addition, the “LC50, MW” value in assay [3] stood at 0.01%. In addition, the “LC50, HF” value in assay [4] is less than 100 µg. Besides, the “LC50, CL” value in assay [5] was greater than 0.1%.

Consider `Cc1cc(N=C(OCc2ccc(F)c(Oc3ccccc3)c2)C(C)C)ccc1Br` [Compound 358], for which the “LC50, TBW, E (TBW-E)” value in assay [1] is listed as greater than 0.1%. In addition, the “LC50, LH” value in assay [2] is less than 0.05%. In addition, the “LC50, MW” value in assay [3] is given as greater than 0.01%. For the same compound, the “LC50, HF” value in assay [4] is less than 100 µg. The “LC50, CL” value in assay [5] is greater than 0.1%.

Consider `Cc1cc(N=C(OCc2ccc(F)c(Oc3ccc(F)cc3)c2)C(C)C)ccc1Br` [Compound 359], for which the “LC50, TBW, E (TBW-E)” value in assay [1] is 0.023%. Further, in assay [2], the “LC50, LH” value is reported as 0.05%. Further, the “LC50, MW” value in assay [3] is listed as greater than 0.01%. Moreover, the “LC50, HF” value in assay [4] was less than 100 µg. In assay [5], the “LC50, CL” value is greater than 0.1%.

Take `CCc1ccc(N=C(OCc2ccc(F)c(Oc3ccccc3)c2)C(C)C)cc1` [Compound 360]: in assay [1], the “LC50, TBW, E (TBW-E)” value is on record as greater than 0.1%. Moreover, the “LC50, LH” value in assay [2] was less than 0.05%. For the same compound, the “LC50, MW” value in assay [3] is greater than 0.01%. Also, the “LC50, HF” value in assay [4] is less than 100 µg. For the same compound, the “LC50, CL” value in assay [5] is on record as 0.006%.

For the compound `CCc1ccc(N=C(OCc2ccc(F)c(Oc3ccc(F)cc3)c2)C(C)C)cc1` [Compound 361], the “LC50, TBW, E (TBW-E)” value in assay [1] is given as 0.04%. Besides, in assay [2], the “LC50, LH” value is less than 0.05%. Moreover, the “LC50, MW” value in assay [3] was greater than 0.01%. Also, the “LC50, HF” value in assay [4] was less than 100 µg. In addition, the “LC50, CL” value in assay [5] worked out at 0.001%.

For the compound `CSc1cccc(N=C(OCc2ccc(F)c(Oc3ccccc3)c2)C(C)C)c1` [Compound 362], the “LC50, TBW, E (TBW-E)” value in assay [1] was greater than 0.1%. The “LC50, LH” value in assay [2] was greater than 0.05%. Also, the “LC50, MW” value in assay [3] is on record as greater than 0.01%. The “LC50, HF” value in assay [4] was less than 100 µg. In assay [5], the “LC50, CL” value is listed as greater than 0.1%.

As for `COc1ccc(N=C(OCc2ccc(F)c(Oc3ccc(F)cc3)c2)C(C)C)cc1OC` [Compound 363], the “LC50, TBW, E (TBW-E)” value in assay [1] was greater than 0.1%. Moreover, the “LC50, LH” value in assay [2] is greater than 0.05%. In addition, the “LC50, MW” value in assay [3] is listed as greater than 0.01%. Moreover, the “LC50, HF” value in assay [4] is less than 100 µg. For the same compound, the “LC50, CL” value in assay [5] is recorded as greater than 0.1%.

For the compound `CC(C)C(=Nc1ccc(Br)c(C(F)(F)F)c1)OCc1ccc(F)c(Oc2ccc(F)cc2)c1` [Compound 364], in assay [1], the “LC50, TBW, E (TBW-E)” value came to 0.025%. Also, the “LC50, LH” value in assay [2] is recorded as less than 0.05%. Moreover, in assay [3], the “LC50, MW” value is given as greater than 0.01%. Also, the “LC50, HF” value in assay [4] is less than 100 µg. In addition, the “LC50, CL” value in assay [5] is on record as 0.00045%.

In the case of `CC(C)C(=Nc1ccc(C(F)(F)F)cc1)OCc1cccc(Oc2ccc(Cl)cc2)c1` [Compound 365], the “LC50, TBW, E (TBW-E)” value in assay [1] is 0.038%. Also, in assay [2], the “LC50, LH” value is reported as less than 0.05%. Besides, the “LC50, MW” value in assay [3] is listed as greater than 0.01%. Moreover, the “LC50, HF” value in assay [4] is greater than 100 µg. The “LC50, CL” value in assay [5] was 0.00025%.

On to `CC(C)C(=Nc1ccc2c(c1)OCO2)OCc1ccc(F)c(Oc2ccc(Cl)cc2)c1` [Compound 366], for which the “LC50, TBW, E (TBW-E)” value in assay [1] is listed as 0.012%. The “LC50, LH” value in assay [2] was 0.05%. In assay [3], the “LC50, MW” value is on record as greater than 0.01%. In assay [4], the “LC50, HF” value was less than 100 µg. In assay [5], the “LC50, CL” value is 0.0007%.

Consider `CC(C)C(=Nc1ccc2c(c1)OCO2)OCc1cccc(Oc2ccc(C(C)(C)C)cc2)c1` [Compound 367], for which, in assay [1], the “LC50, TBW, E (TBW-E)” value is reported as greater than 0.1%. In addition, in assay [2], the “LC50, LH” value is reported as greater than 0.05%. For the same compound, the “LC50, MW” value in assay [3] is given as greater than 0.01%. The “LC50, HF” value in assay [4] is greater than 100 µg. For the same compound, the “LC50, CL” value in assay [5] is recorded as less than 0.1%.

For the compound `CC(C)C(=Nc1ccc(F)cc1)OCCc1cccc(Oc2ccccc2)c1` [Compound 456], the “LC50, TBW, E (TBW-E)” value in assay [1] is given as greater than 0.05%. In addition, the “LC50, LH” value in assay [2] is greater than 0.05%. Moreover, in assay [3], the “LC50, MW” value is reported as greater than 0.01%. In assay [4], the “LC50, HF” value was greater than 100 µg. In assay [5], the “LC50, CL” value was found to be 0.017%.

As for `CC(C)C(=Nc1ccc2c(c1)OCO2)OCc1cccc(Oc2ccc(Cl)cc2)n1` [Compound 466], the “LC50, TBW, E (TBW-E)” value in assay [1] is recorded as greater than 0.1%. Besides, the “LC50, LH” value in assay [2] was greater than 0.05%. For the same compound, the “LC50, MW” value in assay [3] came to 0.01%. Further, in assay [4], the “LC50, HF” value came out at 13 µg. The “LC50, CL” value in assay [5] came to 0.0008%.

As for `CC(C)C(=Nc1ccc(F)c(Cl)c1)OCc1ccc(OCc2ccccc2)cc1` [Compound 475], the “LC50, TBW, E (TBW-E)” value in assay [1] is reported as greater than 0.1%. In assay [2], the “LC50, LH” value is reported as greater than 0.05%. Besides, the “LC50, MW” value in assay [3] is on record as greater than 0.01%. For the same compound, the “LC50, HF” value in assay [4] is greater than 100 µg. In addition, in assay [5], the “LC50, CL” value was 0.008%.

For `C=CCOc1cccc(COC(=Nc2ccc(F)c(Cl)c2)C(C)C)c1` [Compound 479], the “LC50, TBW, E (TBW-E)” value in assay [1] is listed as greater than 0.1%. Further, in assay [2], the “LC50, LH” value is reported as greater than 0.05%. Also, the “LC50, MW” value in assay [3] is greater than 0.01%. The “LC50, HF” value in assay [4] stood at 66 µg. Further, in assay [5], the “LC50, CL” value amounted to 0.013%.

For `CC(C)C(=Nc1ccc(F)c(Cl)c1)OCc1cccc(OCc2ccc(F)cc2)c1` [Compound 490], in assay [1], the “LC50, TBW, E (TBW-E)” value is listed as greater than 0.1%. Moreover, the “LC50, LH” value in assay [2] is on record as greater than 0.05%. The “LC50, MW” value in assay [3] is given as greater than 0.01%. For the same compound, in assay [4], the “LC50, HF” value is greater than 100 µg. Also, the “LC50, CL” value in assay [5] was 0.0045%.

As for `CC(C)C(=Nc1ccc(F)c(Cl)c1)OCc1cccc(Oc2ccc(Br)cc2)n1` [Compound 492], the “LC50, TBW, E (TBW-E)” value in assay [1] is on record as 0.015%. For the same compound, in assay [2], the “LC50, LH” value is given as greater than 0.05%. Further, the “LC50, MW” value in assay [3] is greater than 0.01%. Besides, in assay [4], the “LC50, HF” value turned out to be 15 µg. Besides, the “LC50, CL” value in assay [5] was 0.00028%.

Turning to `CC(C)C(=Nc1ccc(F)c(Cl)c1)OCc1cccc(Nc2ccc(F)cc2)c1` [Compound 512], in assay [1], the “LC50, TBW, E (TBW-E)” value is on record as greater than 0.1%. Besides, the “LC50, LH” value in assay [2] is given as greater than 0.05%. For the same compound, in assay [3], the “LC50, MW” value is given as greater than 0.01%. Moreover, the “LC50, HF” value in assay [4] was 35 µg. In addition, the “LC50, CL” value in assay [5] was 0.003%.

In the case of `CC(C)C(=Nc1cccc(C(F)(F)F)c1)OCc1cccc(Nc2ccc(F)cc2)c1` [Compound 513], the “LC50, TBW, E (TBW-E)” value in assay [1] is given as greater than 0.1%. The “LC50, LH” value in assay [2] is on record as greater than 0.05%. Besides, the “LC50, MW” value in assay [3] is greater than 0.01%. Moreover, the “LC50, HF” value in assay [4] turned out to be 81 µg. Moreover, the “LC50, CL” value in assay [5] is 0.007%.

As to `CC(C)C(=Nc1ccc(Cl)c(Cl)c1)OCc1cccc(Nc2ccc(F)cc2)c1` [Compound 514], the “LC50, TBW, E (TBW-E)” value in assay [1] is on record as greater than 0.1%. Moreover, the “LC50, LH” value in assay [2] is greater than 0.05%. Besides, in assay [3], the “LC50, MW” value was greater than 0.01%. In assay [4], the “LC50, HF” value was greater than 100 µg. The “LC50, CL” value in assay [5] was found to be 0.008%.
